Source: patent US9309250B2, “Substituted pyrrolo[2,3-b]pyrazines as ATR kinase inhibitors” (Vertex Pharmaceuticals Incorporated, priority 2011, dated 2016)

Target: T1, full-length ATR (Homo sapiens, UniProt Q13535)
T1 construct: Assays were carried out at 25° C. in the presence of 5 nM full-length ATR
Assay: ATR Inhibition Assay (radioactive-phosphate incorporation)
Assay type: biochemical
Conditions: Ki(app), 5 nM full-length ATR, 10 μM ATP, 25° C.
Experimental: Compounds were screened for their ability to inhibit ATR kinase using a radioactive-phosphate incorporation assay. Assays were carried out in a mixture of 50 mM Tris/HCl (pH 7.5), 10 mM MgCl2 and 1 mM DTT. Final substrate concentrations were 10 μM [γ-33P]ATP (3mCi 33P ATP/mmol ATP, Perkin Elmer) and 800 μM target peptide (ASELPASQPQPFSAKKK) (SEQ. ID. NO: 1).
Assays were carried out at 25° C. in the presence of 5 nM full-length ATR. An assay stock buffer solution was prepared containing all of the reagents listed above, with the exception of ATP and the test compound of interest. 13.5 μL of the stock solution was placed in a 96 well plate followed by addition of 2 μL of DMSO stock containing serial dilutions of the test compound (typically starting from a final concentration of 15 μM with 3-fold serial dilutions) in duplicate (final DMSO concentration 7%). The plate was pre-incubated for 10 minutes at 25° C. and the reaction initiated by addition of 15 μL [γ-33P]ATP (final concentration 10 μM).
The reaction was stopped after […] by the addition of 30 μL 0.1M phosphoric acid containing 2 mM ATP. A multiscreen phosphocellulose filter 96-well plate (Millipore, Cat no. MAPHN0B50) was pretreated with 100 μL 0.2M phosphoric acid prior to the addition of 45 μL of the stopped assay mixture. The plate was washed with 5×200 μL 0.2M phosphoric acid. After drying, 100 μL Optiphase ‘SuperMix’ liquid scintillation cocktail (Perkin Elmer) was added to the well prior to scintillation counting (1450 Microbeta Liquid Scintillation Counter, Wallac).
After removing mean background values for all of the data points, Ki(app) data were calculated from non-linear regression analysis of the initial rate data using the Prism software package (GraphPad Prism version 3.0cx for Macintosh, GraphPad Software, San Diego Calif., USA).
Below is a chart showing the ATR Inhibition Ki values of compounds of the disclosure.

T1 sequence (Q13535 whole entry): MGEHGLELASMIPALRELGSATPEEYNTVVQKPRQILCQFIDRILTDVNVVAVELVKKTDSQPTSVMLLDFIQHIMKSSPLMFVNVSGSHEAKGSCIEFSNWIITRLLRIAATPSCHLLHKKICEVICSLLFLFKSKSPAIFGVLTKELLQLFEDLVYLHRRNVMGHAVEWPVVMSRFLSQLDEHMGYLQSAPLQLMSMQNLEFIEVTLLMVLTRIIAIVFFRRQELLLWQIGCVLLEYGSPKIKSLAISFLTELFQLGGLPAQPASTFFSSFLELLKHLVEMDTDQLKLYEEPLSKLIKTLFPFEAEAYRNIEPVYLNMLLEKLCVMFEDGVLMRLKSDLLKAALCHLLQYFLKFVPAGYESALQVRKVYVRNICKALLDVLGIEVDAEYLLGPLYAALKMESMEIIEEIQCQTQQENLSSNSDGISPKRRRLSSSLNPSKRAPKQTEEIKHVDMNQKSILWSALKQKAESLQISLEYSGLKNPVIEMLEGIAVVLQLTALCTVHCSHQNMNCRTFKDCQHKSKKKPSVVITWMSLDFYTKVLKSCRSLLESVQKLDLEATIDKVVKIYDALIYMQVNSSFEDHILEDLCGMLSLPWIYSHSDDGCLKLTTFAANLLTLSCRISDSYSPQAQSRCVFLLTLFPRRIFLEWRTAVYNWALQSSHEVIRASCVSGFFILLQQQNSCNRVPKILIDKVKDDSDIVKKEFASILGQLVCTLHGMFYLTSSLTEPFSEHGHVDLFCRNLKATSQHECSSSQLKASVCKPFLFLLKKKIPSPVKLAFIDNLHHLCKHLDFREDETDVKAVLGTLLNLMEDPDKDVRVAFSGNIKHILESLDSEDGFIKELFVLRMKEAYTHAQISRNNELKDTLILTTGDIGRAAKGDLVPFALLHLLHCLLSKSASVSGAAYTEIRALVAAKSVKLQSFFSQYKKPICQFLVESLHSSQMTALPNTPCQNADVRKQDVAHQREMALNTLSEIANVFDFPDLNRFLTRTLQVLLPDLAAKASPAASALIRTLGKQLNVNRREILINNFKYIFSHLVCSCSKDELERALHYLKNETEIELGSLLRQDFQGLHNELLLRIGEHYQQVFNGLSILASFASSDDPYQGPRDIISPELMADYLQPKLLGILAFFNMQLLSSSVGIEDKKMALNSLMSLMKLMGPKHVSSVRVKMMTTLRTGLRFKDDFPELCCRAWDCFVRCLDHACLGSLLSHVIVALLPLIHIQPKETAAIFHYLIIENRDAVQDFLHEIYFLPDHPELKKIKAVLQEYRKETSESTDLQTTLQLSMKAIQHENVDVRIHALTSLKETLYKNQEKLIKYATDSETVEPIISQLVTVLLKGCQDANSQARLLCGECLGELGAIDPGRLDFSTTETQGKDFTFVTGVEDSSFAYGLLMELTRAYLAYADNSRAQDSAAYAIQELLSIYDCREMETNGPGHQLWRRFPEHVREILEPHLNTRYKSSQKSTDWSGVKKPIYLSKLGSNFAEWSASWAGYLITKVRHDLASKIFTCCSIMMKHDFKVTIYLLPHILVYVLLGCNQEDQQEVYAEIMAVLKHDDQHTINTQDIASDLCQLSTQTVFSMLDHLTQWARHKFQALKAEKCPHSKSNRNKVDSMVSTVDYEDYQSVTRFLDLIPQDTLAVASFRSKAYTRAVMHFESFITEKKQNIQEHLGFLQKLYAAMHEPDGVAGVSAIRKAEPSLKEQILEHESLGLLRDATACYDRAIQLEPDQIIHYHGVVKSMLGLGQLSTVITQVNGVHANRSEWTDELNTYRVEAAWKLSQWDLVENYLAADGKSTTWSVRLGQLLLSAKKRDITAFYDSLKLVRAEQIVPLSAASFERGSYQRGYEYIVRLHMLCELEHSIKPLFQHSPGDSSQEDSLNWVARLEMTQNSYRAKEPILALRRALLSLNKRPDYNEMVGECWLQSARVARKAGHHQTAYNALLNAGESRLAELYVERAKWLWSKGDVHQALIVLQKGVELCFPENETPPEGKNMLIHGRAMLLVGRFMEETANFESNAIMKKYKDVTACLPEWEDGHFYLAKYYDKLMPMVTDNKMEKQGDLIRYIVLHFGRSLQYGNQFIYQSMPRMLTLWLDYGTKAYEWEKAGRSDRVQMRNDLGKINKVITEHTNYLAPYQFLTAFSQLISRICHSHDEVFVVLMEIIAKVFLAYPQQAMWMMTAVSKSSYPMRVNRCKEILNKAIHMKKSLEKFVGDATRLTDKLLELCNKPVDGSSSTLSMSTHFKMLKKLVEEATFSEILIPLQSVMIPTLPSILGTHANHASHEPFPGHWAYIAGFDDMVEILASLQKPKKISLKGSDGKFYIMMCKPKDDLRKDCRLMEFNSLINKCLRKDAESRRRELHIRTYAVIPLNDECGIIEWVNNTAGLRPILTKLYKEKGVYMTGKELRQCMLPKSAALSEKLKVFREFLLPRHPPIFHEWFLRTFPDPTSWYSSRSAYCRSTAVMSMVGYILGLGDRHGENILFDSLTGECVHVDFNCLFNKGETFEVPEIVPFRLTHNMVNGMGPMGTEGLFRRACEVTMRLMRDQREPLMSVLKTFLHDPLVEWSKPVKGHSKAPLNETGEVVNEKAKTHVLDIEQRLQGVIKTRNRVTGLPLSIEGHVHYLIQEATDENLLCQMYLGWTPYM

SMILES: CC(C)S(=O)(=O)c1ccc(-c2cnc3[nH]cc(N4Cc5cc(NCCN6CCOCC6)ccc5C4=O)c3n2)cc1 [Compound I-32, 2-(2-(4-(isopropylsulfonyl)phenyl)-5H-pyrrolo[2,3-b]pyrazin-7-yl)-5-((2-morpholinoethyl)amino)isoindolin-1-one]
- Ki (800 μM target peptide): ≤ 50 nM

SMILES: CC(C)S(=O)(=O)c1ccc(-c2cnc3[nH]cc(N4Cc5ccc(C#N)cc5C4=O)c3n2)cc1 [Compound I-13, 2-(2-(4-(isopropylsulfonyl)phenyl)-5H-pyrrolo[2,3-b]pyrazin-7-yl)-3-oxoisoindoline-5-carbonitrile]
- Ki (numeric bound printed among class symbols): > 4000 nM

SMILES: CC(C)S(=O)(=O)c1ccc(-c2cnc3[nH]cc(N4Cc5ccccc5C4=O)c3n2)cc1 [Compound I-1, 2-(2-(4-(isopropylsulfonyl)phenyl)-5H-pyrrolo[2,3-b]pyrazin-7-yl)isoindolin-1-one]
- Ki (800 μM target peptide): ≤ 50 nM

SMILES: CC(C)S(=O)(=O)c1ccc(-c2cnc3[nH]cc(N4Cc5ccc(OCCN(C)C)cc5C4=O)c3n2)cc1 [Compound I-46, 6-(2-(dimethylamino)ethoxy)-2-(2-(4-(isopropylsulfonyl)phenyl)-5H-pyrrolo[2,3-b]pyrazin-7-yl)isoindolin-1-one]
- Ki (800 μM target peptide): ≤ 50 nM

SMILES: CC(C)S(=O)(=O)c1ccc(-c2cnc3[nH]cc(N4Cc5cccc(C#N)c5C4=O)c3n2)cc1 [Compound I-18, 2-(2-(4-(isopropylsulfonyl)phenyl)-5H-pyrrolo[2,3-b]pyrazin-7-yl)-3-oxoisoindoline-4-carbonitrile]
- Ki (800 μM target peptide): ≤ 50 nM

SMILES: CC(C)S(=O)(=O)c1ccc(-c2cnc3[nH]cc(N4Cc5cccc(CN)c5C4=O)c3n2)cc1 [Compound I-19, 7-(aminomethyl)-2-(2-(4-(isopropylsulfonyl)phenyl)-5H-pyrrolo[2,3-b]pyrazin-7-yl)isoindolin-1-one]
- Ki (800 μM target peptide): ≤ 50 nM

SMILES: CC(C)S(=O)(=O)c1ccc(-c2cnc3[nH]cc(N4Cc5cccc(Cl)c5C4=O)c3n2)cc1 [Compound I-12, 7-chloro-2-(2-(4-(isopropylsulfonyl)phenyl)-5H-pyrrolo[2,3-b]pyrazin-7-yl)isoindolin-1-one]
- Ki (800 μM target peptide): ≤ 50 nM

SMILES: CN(C)C(=O)c1ccc(-c2cnc3[nH]cc(N4Cc5ccccc5C4=O)c3n2)cc1 [Compound I-4, N,N-dimethyl-4-(7-(1-oxoisoindolin-2-yl)-5H-pyrrolo[2,3-b]pyrazin-2-yl)benzamide]
- Ki (800 μM target peptide): 50 to 100 nM

SMILES: CC(C)(C#N)c1cc(-c2cnc3[nH]cc(N4Cc5ccccc5C4=O)c3n2)ccn1 [Compound I-6, 2-methyl-2-(4-(7-(1-oxoisoindohn-2-yl)-5H-pyrrolo[2,3-b]pyrazin-2-yl)pyridin-2-yl)propanenitrile]
- Ki (800 μM target peptide): ≤ 50 nM

SMILES: CC(C)S(=O)(=O)c1ccc(-c2cnc3[nH]cc(N4Cc5cc(N6CCCNCC6)ccc5C4=O)c3n2)cc1 [Compound I-38, 5-(1,4-diazepan-1-yl)-2-(2-(4-(isopropylsulfonyl)phenyl)-5H-pyrrolo[2,3-b]pyrazin-7-yl)isoindolin-1-one]
- Ki (800 μM target peptide): ≤ 50 nM

SMILES: CC(C)S(=O)(=O)c1ccc(-c2cnc3[nH]cc(N4Cc5cc(N6CC[C@@H](CN)C6)ccc5C4=O)c3n2)cc1 [Compound I-35, (S)-5-(3-(aminomethyl)pyrrolidin-1-yl)-2-(2-(4-(isopropylsulfonyl)phenyl)-5H-pyrrolo[2,3-b]pyrazin-7-yl)isoindolin-1-one]
- Ki (800 μM target peptide): ≤ 50 nM

SMILES: CC(C)S(=O)(=O)c1ccc(-c2cnc3[nH]cc(N4Cc5c(C#N)cccc5C4=O)c3n2)cc1 [Compound I-16, 2-(2-(4-(isopropylsulfonyl)phenyl)-5H-pyrrolo[2,3-b]pyrazin-7-yl)-1-oxoisoindoline-4-carbonitrile]
- Ki (800 μM target peptide): 50 to 100 nM

SMILES: CC(C)S(=O)(=O)c1ccc(-c2cnc3[nH]cc(N4Cc5cc(N6CCC(CN)CC6)ccc5C4=O)c3n2)cc1 [Compound I-33, 5-(4-(aminomethyl)piperidin-1-yl)-2-(2-(4-(isopropylsulfonyl)phenyl)-5H-pyrrolo[2,3-b]pyrazin-7-yl)isoindolin-1-one]
- Ki (800 μM target peptide): 50 to 100 nM

SMILES: N#CC1(c2cc(-c3cnc4[nH]cc(N5Cc6ccccc6C5=O)c4n3)ccn2)CN2CCC1CC2 (centres unmarked) [Compound I-7, 3-(4-(7-(1-oxoisoindolin-2-yl)-5H-pyrrolo[2,3-b]pyrazin-2-yl)pyridin-2-yl)quinuclidine-3-carbonitrile]
- Ki (800 μM target peptide): ≤ 50 nM

SMILES: CC(C)S(=O)(=O)c1ccc(-c2cnc3[nH]cc(N4Cc5ccc(CN)cc5C4=O)c3n2)cc1 [Compound I-20, 6-(aminomethyl)-2-(2-(4-(isopropylsulfonyl)phenyl)-5H-pyrrolo[2,3-b]pyrazin-7-yl)isoindolin-1-one]
- Ki (800 μM target peptide): ≤ 50 nM

SMILES: CNc1cccc2c1C(=O)N(c1c[nH]c3ncc(-c4ccc(S(=O)(=O)C(C)C)cc4)nc13)C2 [Compound I-44, 2-(2-(4-(isopropylsulfonyl)phenyl)-5H-pyrrolo[2,3-b]pyrazin-7-yl)-7-(methylamino)isoindolin-1-one]
- Ki (800 μM target peptide): 50 to 100 nM

SMILES: CC(C)S(=O)(=O)c1ccc(-c2cnc3[nH]cc(N4Cc5ccc(N6CC[C@H](N)C6)cc5C4=O)c3n2)cc1 [Compound I-27, (S)-6-(3-aminopyrrolidin-1-yl)-2-(2-(4-(isopropylsulfonyl)phenyl)-5H-pyrrolo[2,3-b]pyrazin-7-yl)isoindolin-1-one]
- Ki (800 μM target peptide): ≤ 50 nM
